Values quoted from earlier work in patent US9750672B1, “Aloe derived mineral supplement” (AL Global Inc., priority 2013, dated 2017).

Experiments:
[1] = magnesium load 25 mmol; for increment in urinary magnesium during 4 hours post-load: p<0.05; for increment in urinary magnesium during second 2 hours post-load: p less than 0.05

Compound	solubility in simulated peak acid secretion (24.2 mEq hydrochloric acid/300 ml)	solubility in water (water)	increment in urinary magnesium during 4 hours post-load [1]	increment in urinary magnesium during second 2 hours post-load [1]
[O]=[Mg] [Magnesium oxide]	43%	virtually insoluble	0.006 mg/mg creatinine	0.008 mg/mg creatinine
Magnesium citrate			0.22 mg/mg creatinine	0.035 mg/mg creatinine
